Like-named read-outs stand apart in the source and are kept apart here.
Tests used:
Corn [1] = assay: Greenhouse test Procedure VII: biocide and antidote in furrow, herbicide POE (Examples 39-42, 48-50, 56-58; Tables 38-41, 47-49, 55-57); format: in vivo
Summary of the method: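 Corn seed was planted in greenhouse pots, with COUNTER 15G insecticide plus antidote granules applied in-furrow (e.g. 1.1 + 0.37 mg a.i./cm, or 227 g/305 m with acetone-applied safeners). About five days later, herbicides in water with 0.25% v/v X-77 were track-sprayed post-emergence at 187 L/ha. Plant response was scored eight days afterward, with two to four replicates.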

Corn [2] = details: for % Inhibition Corn: PPI; for reducing corn injury, comparison: in vivo
Corn [3] = details: for activity in reducing corn injury: primisulfuron POE + biocides PPI, Tables 8-10
[4] = Antidote + Biocide No. 1 in furrow, Herbicide No. 1 0.14 Kg/Ha POE, 8 days after POE
[5] = Antidote + Biocide No. 1 in furrow, Herbicide No. 4 0.17 Kg/Ha POE, 8 days after POE
[6] = Antidote + Biocide No. 1 in furrow, Herbicide No. 5 0.07 Kg/Ha POE, 8 days after POE
[7] = Antidote + Biocide No. 1 in furrow, Herbicide No. 6 0.01 Kg/Ha POE
[8] = Antidote + Biocide No. 1 in furrow, Herbicide No. 7 0.56 Kg/Ha POE, 8 days after POE
[9] = Antidote + Biocide No. 1 in furrow, Herbicide No. 9 0.009 Kg/Ha POE
[10] = Antidote + Biocide No. 1 in furrow, Herbicide No. 10 0.002 Kg/Ha POE, 8 days after POE
[11] = Antidote + Biocide No. 1 in furrow, Herbicide No. 15 0.0044 Kg/Ha POE, 8 days after POE
[12] = Antidote + Biocide No. 1 in furrow, Herbicide No. 16 0.01 Kg/Ha POE
[13] = Antidote + Biocide No. 1 in furrow, Herbicide No. 18 0.0044 Kg/Ha POE
[14] = Antidote + Biocide No. 1 in furrow, Herbicide No. 19 0.28 Kg/Ha POE
[15] = Antidote + Biocide No. 1 in furrow, Herbicide No. 21 0.14 Kg/Ha POE
[16] = Antidote + Biocide No. 1 in furrow, Herbicide No. 23 0.0006 Kg/Ha POE
[17] = XRD-498 + OP insecticides, Examples 24-27
[18] = ACCENT POE + OP insecticides PPI, Tables 11-14
[19] = Antidote 4.48 + Biocide No. 1 8.96 Kg/Ha PPI, Herb. No. 8 0.07, 5 DAP, before herbicide application
[20] = Antidote 4.48 + Biocide No. 1 8.96 Kg/Ha PPI, Herb. No. 8 0.07 POE, 13 DAP
[21] = Antidote 4.48 + Biocide No. 1 8.96 Kg/Ha PPI, Herbicide No. 7 0.28 POE, 13 days after planting
[22] = Herb. […], 5 DAP, before herbicide application
[23] = Table 14: Herbicide No. 7 (ACCENT) 0.84 Kg/Ha POE + Biocide No. 2 8.96 Kg/Ha PPI + antidote 4.48 Kg/Ha PPI, 13 days after planting, 8 days after herbicide
[24] = […], 13 days after planting, 8 days after herbicide
[25] = […], observed 10 days after herbicide application
[26] = MON-12000 + OP insecticides, Examples 20-23
[27] = malathion + Herbicides 1, 21, 18, Example 54

Structure (SMILES): CC1(C)OC(c2ccco2)CN1C(=O)C(Cl)Cl (centres unmarked) [compound 1]
- % Inhibition Corn (Corn [1]; [4]): 15%
- % Inhibition Corn (Corn [1]; [5]): 10%
- % Inhibition Corn (Corn [1]; [6]): 15%
- % Inhibition Corn (Corn [1]; [7]): 15%
- % Inhibition Corn (Corn [1]; [8]): 10%
- % Inhibition Corn (Corn [1]; [9]): 10%
- % Inhibition Corn (Corn [1]; [10]): 15%
- % Inhibition Corn (Corn [1]; [11]): 10%
- % Inhibition Corn (Corn [1]; [12]): 20%
- % Inhibition Corn (Corn [1]; [13]): 15%
- % Inhibition Corn (Corn [1]; [14]): 20%
- % Inhibition Corn (Corn [1]; [15]): 20%
- % Inhibition Corn (Corn [1]; [16]): 20%
- % Inhibition Corn (Corn [1]; C (COUNTER) + antidote in furrow, C:A Ratio 20, ACCENT 0.56 Kg/Ha POE): 10%
- % Inhibition Corn (Corn [1]; C (COUNTER) + antidote in furrow, C:A Ratio 20, BEACON 0.28 Kg/Ha POE): 5%
- % Inhibition Corn (Corn [1]; C (COUNTER) + antidote in furrow, C:A Ratio 40, ACCENT 0.56 Kg/Ha POE): 10%
- % Inhibition Corn (Corn [1]; C (COUNTER) + antidote in furrow, C:A Ratio 40, BEACON 0.28 Kg/Ha POE): 5%
- % Inhibition Corn (Corn [1]; C (COUNTER) + antidote in furrow, C:A Ratio 80, ACCENT 0.56 Kg/Ha POE): 10%
- % Inhibition Corn (Corn [1]; C (COUNTER) + antidote in furrow, C:A Ratio 80, BEACON 0.28 Kg/Ha POE): 10%
- % Inhibition Corn (Corn [1]; C (COUNTER) + antidote in furrow, C:A Ratio 160, ACCENT 0.56 Kg/Ha POE): 15%
- % Inhibition Corn (Corn [1]; C (COUNTER) + antidote in furrow, C:A Ratio 160, BEACON 0.28 Kg/Ha POE): 15%
- % Inhibition Corn (Corn [1]; Herbicide No. 1 0.14 Kg/Ha POE + Biocide No. 1 in furrow, no antidote, 8 days after POE): 35%
- % Inhibition Corn (Corn [1]; Herbicide No. 1 0.14 Kg/Ha POE alone, 8 days after POE): 0%
- % Corn Inhibition C:A Ratios 5 (Corn [1]; Herbicide No. 8 0.28 Kg/Ha POE + COUNTER 15G 227 g/305 m + antidote in furrow, C:A ratio 5): 3%
- % Corn Inhibition C:A Ratios 10 (Corn [1]; Herbicide No. 8 0.28 Kg/Ha POE + COUNTER 15G 227 g/305 m + antidote in furrow, C:A ratio 10): 3%
- % Corn Inhibition C:A Ratios 20 (Corn [1]; Herbicide No. 8 0.28 Kg/Ha POE + COUNTER 15G 227 g/305 m + antidote in furrow, C:A ratio 20): 0%
- % Corn Inhibition C:A Ratios 40 (Corn [1]; Herbicide No. 8 0.28 Kg/Ha POE + COUNTER 15G 227 g/305 m + antidote in furrow, C:A ratio 40): 0%
- % Corn Inhibition C:A Ratios 80 (Corn [1]; Herbicide No. 8 0.28 Kg/Ha POE + COUNTER 15G 227 g/305 m + antidote in furrow, C:A ratio 80): 3%
- % Corn Inhibition C:A Ratios 160 (Corn [1]; Herbicide No. 8 0.28 Kg/Ha POE + COUNTER 15G 227 g/305 m + antidote in furrow, C:A ratio 160): 13%
- safening activity (Corn [2]; [17]): Safening activity was observed
- % Inhibition Corn (Corn [2]; 13 days after PPI (Table 31)): 25%
- reducing corn injury, comparison (Corn [2]): superior to No. 28
- safener activity (Corn [3]; [18]): most active
- % Inhibition 5 DAP Corn (Corn [3]; [19]): 10%
- % Inhibition 13 DAP Corn (Corn [3]; [20]): 25%
- % Inhibition Corn (Corn [3]; [21]): 20%
- % Inhibition 5 DAP Corn (Corn [3]; [22]): 0%
- % Inhibition Corn (Corn [3]; [23]): 5%
- % Inhibition Corn (Corn [3]; [24]): 5%
- % Inhibition Corn (Corn [3]; […], observed 9 days later (Table 29)): 10%
- % Inhibition Corn (Corn [3]; […], observed 9 days later (Table 30)): 35%
- % Inhibition Corn (Corn [3]; [25]): 55%
- % Inhibition 5 DAP Corn (Corn [3]; in vivo): 30%
- % Inhibition 13 DAP Corn (Corn [3]; in vivo): 20%
- activity in reducing corn injury (Corn [3]): most active

Structure (SMILES): N#CCOc1ccc(Cl)c2cccnc12 [compound 33]
- % Inhibition Corn (Corn [1]; [4]): 0%
- % Inhibition Corn (Corn [1]; [5]): 5%
- % Inhibition Corn (Corn [1]; [6]): 30%
- % Inhibition Corn (Corn [1]; [7]): 20%
- % Inhibition Corn (Corn [1]; [8]): 10%
- % Inhibition Corn (Corn [1]; [9]): 5%
- % Inhibition Corn (Corn [1]; [10]): 5%
- % Inhibition Corn (Corn [1]; [11]): 15%
- % Inhibition Corn (Corn [1]; [12]): 30%
- % Inhibition Corn (Corn [1]; [13]): 10%
- % Inhibition Corn (Corn [1]; [14]): 10%
- % Inhibition Corn (Corn [1]; [15]): 20%
- % Inhibition Corn (Corn [1]; [16]): 15%
- safening activity (Corn [2]; [26]): Safening activity was observed
- safening activity (Corn [2]; [17]): Safening activity was observed
- safening (Corn [2]; [27]): moderate to high degrees of safening
- safener activity (Corn [3]; [18]): most active
- % Inhibition 5 DAP Corn (Corn [3]; [19]): 25%
- % Inhibition 13 DAP Corn (Corn [3]; [20]): 20%
- % Inhibition Corn (Corn [3]; [21]): 15%
- % Inhibition 5 DAP Corn (Corn [3]; [22]): 0%
- safener activity (Corn [3]; PURSUIT POE + insecticides PPI, Tables 15-18): most active
- % Inhibition Corn (Corn [3]; [23]): 0%
- % Inhibition Corn (Corn [3]; [24]): 10%
- % Inhibition Corn (Corn [3]; [25]): 40%
- % Inhibition 5 DAP Corn (Corn [3]; in vivo): 30%
- % Inhibition 13 DAP Corn (Corn [3]; in vivo): 20%
- effect on corn before application of the herbicide (Corn [3]; in vivo): Some injury
- activity in reducing corn injury (Corn [3]): most active

Structure (SMILES): COC(=O)COC(c1ccccc1)c1ccccc1 [Antidote No. 12, Acetic acid, (diphenylmethoxy)-, methyl ester]
- corn injury (Corn [1]; COUNTER 15G + BEACON/co-herbicide combinations, Example 56): reduced corn injury
- safening of corn injury (Corn [1]; COUNTER 15G + sulfonamide herbicides POE, Table 41): 92-100%
- safening effects (Corn [1]; COUNTER 15G in furrow, POE sulfonylurea herbicides, Tables 38, 39): highest and most consistent safening effects
- safener efficacy (Corn [1]; COUNTER + PURSUIT/co-herbicide tank mixtures, Example 58): most efficacious safener
- antidote efficacy (Corn [1]; imidazolinone herbicides + COUNTER 15G, Table 40): most efficacious antidote
- corn injury (Corn [1]; in-furrow antidote, COUNTER 15G + sulfonamide herbicides, Table 41): significantly reduced
- safening (Corn [2]; DIAZINON + Herbicides 1, 21, 18, Example 53): Effective safening
- safening (Corn [2]; [27]): moderate to high degrees of safening
- relieving corn injury, comparison (Corn [3]; Example 29, COUNTER/PURSUIT negative synergy): more active than Antidote No. 28

Structure (SMILES): COC(=O)COC(c1ccccc1)c1ccccc1 [compound 12]
- % Inhibition Corn (Corn [1]; [4]): 0%
- % Inhibition Corn (Corn [1]; [5]): 0%
- % Inhibition Corn (Corn [1]; [6]): 0%
- % Inhibition Corn (Corn [1]; [7]): 0%
- % Inhibition Corn (Corn [1]; [8]): 5%
- % Inhibition Corn (Corn [1]; [9]): 0%
- % Inhibition Corn (Corn [1]; [10]): 5%
- % Inhibition Corn (Corn [1]; [11]): 0%
- % Inhibition Corn (Corn [1]; [12]): 15%
- % Inhibition Corn (Corn [1]; [13]): 10%
- % Inhibition Corn (Corn [1]; [14]): 0%
- % Inhibition Corn (Corn [1]; [15]): 5%
- % Inhibition Corn (Corn [1]; [16]): 5%
- safening activity (Corn [2]; [26]): Safening activity was observed
- safening activity (Corn [2]; [17]): Safening activity was observed
- % Inhibition Corn (Corn [2]; 14 days after PPI (Table 34)): 25%
- reducing corn injury, comparison (Corn [2]): superior to No. 28
- safener activity (Corn [3]; [18]): most active
- % Inhibition 5 DAP Corn (Corn [3]; [19]): 20%
- % Inhibition 13 DAP Corn (Corn [3]; [20]): 15%
- % Inhibition Corn (Corn [3]; [21]): 20%
- % Inhibition 5 DAP Corn (Corn [3]; [22]): 0%
- % Inhibition Corn (Corn [3]; [23]): 0%
- % Inhibition Corn (Corn [3]; [24]): 0%
- % Inhibition Corn (Corn [3]; […], observed 8 days later (Table 32)): 0%
- % Inhibition Corn (Corn [3]; […], observed 8 days later (Table 33)): 40%
- % Inhibition Corn (Corn [3]; [25]): 60%
- % Inhibition 5 DAP Corn (Corn [3]; in vivo): 20%
- % Inhibition 13 DAP Corn (Corn [3]; in vivo): 20%
- activity in reducing corn injury (Corn [3]): most active
